Experimental data: paper PMC4252262 (Chemico-biological interactions, 2014)
Values joined by “and” are separate entries in the source; they are usually repeats but may differ in a detail not shown here. Identical values can stand only once. Like-named read-outs stand apart in the source and are kept apart here. Each block holds one molecule with its values, some of them ahead of it.

What was measured:
Type in all cases: biochemical
[1] = target: 2E1 (Homo sapiens, UniProt P05181); settings: 25 μM; 15 min pre-incubation at 37 °C in the presence of 1 mM NADPH; positive control
[2] = target: human cytochrome P450_2E1 (Homo sapiens, UniProt P05181); assay: Inhibition of P450 2E1; settings: for Ki: KI for inhibition of 2E1, competitive model, p-nitrophenol substrate; for fold difference in 2E1 KI, branched versus linear 10-carbon aldehyde: decanal vs citronellal, decenal vs citral
[3] = target: T1, expressed 2A6 (supersomes) (Homo sapiens, UniProt P11509); assay: Aldehyde oxidation to carboxylic acid by expressed human P450 2A6 supersomes; settings: 100-120 μM aldehyde, 1.0 mM NADPH, 45 min, 37 °C
T1 sequence (P11509 1-494): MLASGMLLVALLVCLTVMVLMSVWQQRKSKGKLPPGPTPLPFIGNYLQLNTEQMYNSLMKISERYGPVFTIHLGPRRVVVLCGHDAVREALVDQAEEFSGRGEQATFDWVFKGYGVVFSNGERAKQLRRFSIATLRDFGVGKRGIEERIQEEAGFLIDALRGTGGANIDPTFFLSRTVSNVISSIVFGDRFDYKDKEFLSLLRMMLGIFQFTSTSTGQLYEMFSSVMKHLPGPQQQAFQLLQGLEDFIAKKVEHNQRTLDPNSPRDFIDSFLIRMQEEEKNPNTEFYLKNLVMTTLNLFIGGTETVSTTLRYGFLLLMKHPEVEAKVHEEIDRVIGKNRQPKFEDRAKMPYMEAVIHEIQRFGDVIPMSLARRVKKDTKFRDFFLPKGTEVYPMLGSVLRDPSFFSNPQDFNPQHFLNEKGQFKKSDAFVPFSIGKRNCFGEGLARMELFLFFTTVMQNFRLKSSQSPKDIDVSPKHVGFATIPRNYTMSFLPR

[4] = target: expressed cytochrome P450_2E1 in supersomes (Homo sapiens, UniProt P05181); assay: Aldehyde oxidation to carboxylic acid by expressed human P450 2E1 supersomes; settings: for NADPH-dependent oxidation of aldehyde by expressed 2E1: 100-120 μM aldehyde, 1.0 mM NADPH, 45 min, 37 °C; for effect on the rate of acid formation from trans-2-octenal: 1.0 mM added, 2E1 supersomes
[5] = target: T2, human cytochrome P450_2A6 (Homo sapiens, UniProt P11509); assay: Inhibition of P450 2A6
T2 sequence (P11509 1-494): T1 sequence (P11509 1-494)

[6] = KI for inhibition of 2A6, competitive model, coumarin substrate

Chain of expressed cytochrome P450_2E1 in supersomes (P05181 whole entry): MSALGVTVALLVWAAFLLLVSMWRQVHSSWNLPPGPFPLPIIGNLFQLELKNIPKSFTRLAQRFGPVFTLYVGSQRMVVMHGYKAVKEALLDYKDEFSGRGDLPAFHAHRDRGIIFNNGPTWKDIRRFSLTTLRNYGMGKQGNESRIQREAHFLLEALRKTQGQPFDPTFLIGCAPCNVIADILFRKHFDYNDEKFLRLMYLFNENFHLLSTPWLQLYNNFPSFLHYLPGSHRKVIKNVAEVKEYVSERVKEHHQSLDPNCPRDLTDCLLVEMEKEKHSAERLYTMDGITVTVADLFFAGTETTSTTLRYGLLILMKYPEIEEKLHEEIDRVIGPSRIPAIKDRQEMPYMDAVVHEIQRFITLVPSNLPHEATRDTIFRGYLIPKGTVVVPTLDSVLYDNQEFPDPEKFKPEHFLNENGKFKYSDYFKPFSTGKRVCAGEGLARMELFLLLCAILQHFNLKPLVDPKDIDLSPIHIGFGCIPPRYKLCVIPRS
Chain of human cytochrome P450_2E1 (P05181 whole entry): as above
Chain of 2E1 (P05181 whole entry): as above

loss of the activity of 2E1 after pre-incubation [1]: ~ 50%
Structure (SMILES): C=CCCCCCCCCC=O [11-undecylenic aldehyde]

Ki [2]: 7 µM | fold difference in 2E1 KI, branched versus linear 10-carbon aldehyde [2]: about 8 fold
Structure (SMILES): CCCCCCCCCC=O [Decyl Saturated, decanal]

NADPH-dependent oxidation of aldehyde by expressed 2A6 [3]: no acid products | NADPH-dependent oxidation of aldehyde by expressed 2E1 [4]: effective in the oxidation
Structure (SMILES): CCCCCCC/C=C/C=O [Decyl Unsaturated, trans-2-decenal]

Ki [5, 6]: 15.8 ± 1.1 µM
Structure (SMILES): CCCCCCC=O [Heptyl Saturated, heptanal]

NADPH-dependent oxidation of aldehyde by expressed 2A6 [3]: no acid products | NADPH-dependent oxidation of aldehyde by expressed 2E1 [4]: effective in the oxidation
Structure (SMILES): CCCC/C=C/C=O [Heptyl Unsaturated, trans-2-heptenal]

Ki [5]: 57 ± 7 µM
Structure (SMILES): CCCCCC=O [Hexyl Saturated]

Ki [5]: 33 ± 3 µM
Structure (SMILES): CCC/C=C/C=O [Hexyl Unsaturated]

Ki [5]: 55 ± 6 µM
Structure (SMILES): CCCCCCCCC=O [Nonyl Saturated]

NADPH-dependent oxidation of aldehyde by expressed 2A6 [3]: no acid products | NADPH-dependent oxidation of aldehyde by expressed 2E1 [4]: effective in the oxidation
Structure (SMILES): CCCCCC/C=C/C=O [Nonyl Unsaturated, trans-2-nonenal]

Ki [5]: 25 ± 2 µM
Structure (SMILES): CCCCCCCC=O [Octyl Saturated]

NADPH-dependent oxidation of aldehyde by expressed 2A6 [3]: no acid products | NADPH-dependent oxidation of aldehyde by expressed 2E1 [4]: effective in the oxidation
Structure (SMILES): CCCCC/C=C/C=O [Octyl Unsaturated, trans-2-octenal]

Ki [5]: 126 ± 16 µM
Structure (SMILES): CCCCC=O [Pentyl Saturated]

Ki [5]: 1270 ± 150 µM
Structure (SMILES): CCC=CC=O [Pentyl Unsaturated]

Ki [5]: 103 ± 22 µM
Structure (SMILES): CCCCCCCC/C=C/C=O [Undecy Unsaturated]

effect on the rate of acid formation from trans-2-octenal [4]: no effect
Structure (SMILES): O=C1O[C@H]([C@@H](O)CO)C(O)=C1O [ascorbate, reference compound]

Ki [2]: 18.8 µM and 15.7 µM | mode of inhibition of 2E1 ([2]; Michaelis-Menten model): reversible competitive inhibition | fold difference in 2E1 KI, branched versus linear 10-carbon aldehyde [2]: 5 fold | Ki [5, 6]: > 100 µM
Structure (SMILES): CC(C)=CCCC(C)=CC=O [citral, 3,7-dimethyl 2,6-octadienal]

effect on the rate of acid formation from trans-2-octenal [4]: no effect
Structure (SMILES): N[C@@H](CCC(=O)N[C@@H](CS)C(=O)NCC(=O)O)C(=O)O [glutathione, reference compound]

Structure (SMILES): CCCCCCCCCCCC(=O)O [lauric acid, reference compound]
reduction of the activity of 2E1 ([2]; concentration of 50 μM): 50%
